Test results published in US20060014790A1, “Methods of treatment of amyloidosis using spirocyclohexane aspartyl-protease inhibitors” (priority 2004, published 2006).

Experiment: Oral bioavailability after IV and PO administration
Type: in vivo
Details: male, Sprague-Dawley, rat, plasma, read-out: Rat % F
Description: The invention encompasses compounds of formula (I) that are orally bioavailable. Oral bioavailability can be determined following both an intravenous (IV) and oral (PO) administration of a test compound.
Oral Bioavailability was determined in the male Sprague-Dawley rat following both IV and PO administration of test compound. Two month-old male rats (250-300 g) were surgically implanted with polyethylene (PE-50) cannula in the jugular vein while under isoflurane anesthesia the day before the in-life phase. Animals were fasted overnight with water ad libitum, then dosed the next day. The dosing regime consisted of either a 5 mg/kg (2.5 mL/kg) IV dose (N=3) administered to the jugular vein cannula, then flushed with saline, or a 10 mg/kg (5 mL/kg) PO dose (N=3) by esophageal gavage. Compounds were formulated with 10% Solutol in 5% dextrose at 2 mg/mL. […]
Compounds were extracted from samples following precipitation of the plasma proteins by methanol. […] Experimental samples were compared to calibration curves prepared in parallel with aged match rat plasma and quantitated with a weighted 1/x linear regression. […]
AUC is calculated from the linear trapezoidal rule by AUC=((C2+C1)/2)×(T2−T1) where C is concentration and T is time.
Pharmacokinetic parameters were calculated by a non-compartmental approach. […]

Question: Which bioavailability does the source give for `CC(=O)NC(Cc1cc(F)cc(F)c1)C(O)CNC1(c2cccc(C(C)(C)C)c2)CCCCC1` (stereo not shown) [Example 197-1, N-[3-[1-(3-tert-Butyl-phenyl)-cyclohexylamino]-1-(3,5-difluoro-benzyl)-2-hydroxy-propyl]-acetamide] here?
Answer: The bioavailability was 20.2%.
